We go through one compound from patent publication US20050250837A1, “Use of C-Raf inhibitors for the treatment of neurodegenerative diseases” (priority 2002, published 2005).

Test [1] has as its system cerebellar granule neurons. As to the kind of experiment: LK-induced apoptosis of cultured cerebellar granule neurons (MTT viability). Format: cell-based, rat. Here is the method:
Cultured cerebellar granule neurons undergo apoptosis when switched from HK to medium containing LK (D'Mello et al., 1993). […] Neuronal cultures were switched to medium containing LK, or LK medium containing different doses of GW5074. Cell viability was quantified 24 hours later. Control cultures received HK medium. […] Protection against LK-induced apoptosis is maximal at 1 uM.
Granule neuron cultures were obtained from dissociated cerebella of 7-8 day old rats as described previously (D'Mello et al., 1993). Cells were plated in Basal Eagle's Medium with Earles salts (BME) supplemented with 10% fetal bovine serum (FBS), 25 mM KCl, 2 mM glutamine (Gibco-BRL), and 100 ug/ml gentamycin on dishes coated with poly-L-lys ine in 24-well dishes at a density 1.0×10^6 cells/well, 1.2×10^7 cells/60 mm dish, or 3.0×10^7 cells/100 mm dish. Cytosine arabinofuranoside (10 uM) was added to the culture medium 18-22 hours after plating to prevent replication of non-neuronal cells. Cultures were maintained for 6-7 days prior to experimental treatments. For this, the cells were rinsed once and then maintained in low K^+ medium (serum-free BME medium, 5 mM KCl) or high K^+ medium (serum-free BME medium, supplemented with 20 mM KCl). When used to treat cultures, GW5074 was added at the time when cells were switched to LK medium. Treatment of cultures with pharmacological inhibitors was initiated 15 min prior to rinsing and was maintained through the subsequent incubation in LK or HK medium unless specified otherwise. For MPP+ and methylmercury treatments, 7-8 day old cultures were switched to HK medium containing 200 uM MPP+ or 0.5 uM methylmercury. Viability was assayed 24 hours later.
Neuronal survival was quantified by the MTT assay as previously described (Koulich et al., 2001). Briefly, the tetrazolium salt MTT [3-(4,5-dimethyl-2-thiazolyl)-2,5-diphenyl-2H tetrazolium bromide] was added to the cultures at a final concentration of 1 mg/ml, and incubation of the culture was continued in the CO2 incubator for a further 30 min at 37° C. The assay was stopped by adding lysis buffer [20% SDS in 50% N,N-dimethyl formamide, pH 4.7]. The absorbance was measured specrophotometrically at 570 nm after an overnight incubation at room temperature. The absorbance of a well without cells was used as background and subtracted. Results obtained using the MTT assays were confirmed using the fluorescein-diacetate method for quantification of cell viability, as previously described (D'Mello et al., 1993). Data are presented as mean+/−standard deviation. Statistical analysis was performed using ANOVA and Student-Neuman-Keuls' test.

The next test addresses VEGFR2 (Homo sapiens, UniProt P35968). To be noted: Lackey et al., 2000; cited from earlier work.
The test system of another test is Forkhead. The experiment in a line: Forkhead dephosphorylation in LK. Format: cell-based, rat. The settings on record: data not shown. As to the method:
The best-studied anti-apoptotic pathway in neurons is the PI-3 kinase-Akt signaling pathway (D'Mello et al., 1997; Dudek et al., 1997; Miller et al, 1997a). IGF-1, a potent survival-promotic factor for granule neurons mediates its effect by activating the PI-3 kinase-Akt pathway (Datta et al., 1997; Dudek et al., 1997; D'Mello et al., 1998). […] Switching cerebellar granule neurons from serum-containing HK medium in which they are cultured and allowed to mature, to serum-free LK or HK medium, causes a rapid downregulation of Akt phosphorylation and activity, which can be prevented by IGF-1 (Kumari et al., 2001). […] The same blot was reprobed with an antibody against phospho-Gskβ. Also loaded on the gel were lysates from untreated cultures (maintained in medium containing serum and high K+) and a culture treated for 1 hour with 25 ng/ml IGF-1. […] GSK3βis a proapoptotic molecule that is activated during apoptosis in many neuronal and normeuronal systems. Under survival promoting conditions GSK3β is kept inactivated by phosphorylation, a modification that can be induced by Akt. […] Another proapoptotic molecule that is phosphorylated and inactivated by Akt is the transcription factor, Forkhead ([…] et al., 2002). […] Switching of neurons to LK medium leads to a rapid downregulation of Akt activity within 2 hours.

Test [2] deals with cerebellar granule neurons. As to the kind of experiment: Apoptosis of neurons infected with adenoviral dominant-negative Akt. The settings on record: LK + 1 uM GW5074 or 25 ng/ml IGF-1. Format: cell-based, rat. The text has this: Five day old neuronal cultures were infected with adenoviral vectors expressing either GFP or hemagluttinin (HA)-tagged dominant-negative Akt. […] Infected neurons were detected by positive staining for GFP or HA by immunocytochemistry. The proportion of apoptotic cells (condensed or fragmented nuclei) as a percentage of total infected neurons was quantified following DAPI-staining.
DnAkt and control recombinant adenovirus expressing green fluorescent protein (Ad-GFP) are propagated in HEK293T cells and purified by cesium chloride density gradient centrifugation. After quantification of titer, virus at an MOI of 10 are used to infect granule neuron cultures 5 days after plating by direct addition to the medium. Treatments are performed 24 hours after addition of virus.

The next test addresses cdk2 (Homo sapiens, UniProt P24941). To be noted: Lackey et al., 2000; cited from earlier work.

Chain of VEGFR2 (P35968 20-1356, species assumed): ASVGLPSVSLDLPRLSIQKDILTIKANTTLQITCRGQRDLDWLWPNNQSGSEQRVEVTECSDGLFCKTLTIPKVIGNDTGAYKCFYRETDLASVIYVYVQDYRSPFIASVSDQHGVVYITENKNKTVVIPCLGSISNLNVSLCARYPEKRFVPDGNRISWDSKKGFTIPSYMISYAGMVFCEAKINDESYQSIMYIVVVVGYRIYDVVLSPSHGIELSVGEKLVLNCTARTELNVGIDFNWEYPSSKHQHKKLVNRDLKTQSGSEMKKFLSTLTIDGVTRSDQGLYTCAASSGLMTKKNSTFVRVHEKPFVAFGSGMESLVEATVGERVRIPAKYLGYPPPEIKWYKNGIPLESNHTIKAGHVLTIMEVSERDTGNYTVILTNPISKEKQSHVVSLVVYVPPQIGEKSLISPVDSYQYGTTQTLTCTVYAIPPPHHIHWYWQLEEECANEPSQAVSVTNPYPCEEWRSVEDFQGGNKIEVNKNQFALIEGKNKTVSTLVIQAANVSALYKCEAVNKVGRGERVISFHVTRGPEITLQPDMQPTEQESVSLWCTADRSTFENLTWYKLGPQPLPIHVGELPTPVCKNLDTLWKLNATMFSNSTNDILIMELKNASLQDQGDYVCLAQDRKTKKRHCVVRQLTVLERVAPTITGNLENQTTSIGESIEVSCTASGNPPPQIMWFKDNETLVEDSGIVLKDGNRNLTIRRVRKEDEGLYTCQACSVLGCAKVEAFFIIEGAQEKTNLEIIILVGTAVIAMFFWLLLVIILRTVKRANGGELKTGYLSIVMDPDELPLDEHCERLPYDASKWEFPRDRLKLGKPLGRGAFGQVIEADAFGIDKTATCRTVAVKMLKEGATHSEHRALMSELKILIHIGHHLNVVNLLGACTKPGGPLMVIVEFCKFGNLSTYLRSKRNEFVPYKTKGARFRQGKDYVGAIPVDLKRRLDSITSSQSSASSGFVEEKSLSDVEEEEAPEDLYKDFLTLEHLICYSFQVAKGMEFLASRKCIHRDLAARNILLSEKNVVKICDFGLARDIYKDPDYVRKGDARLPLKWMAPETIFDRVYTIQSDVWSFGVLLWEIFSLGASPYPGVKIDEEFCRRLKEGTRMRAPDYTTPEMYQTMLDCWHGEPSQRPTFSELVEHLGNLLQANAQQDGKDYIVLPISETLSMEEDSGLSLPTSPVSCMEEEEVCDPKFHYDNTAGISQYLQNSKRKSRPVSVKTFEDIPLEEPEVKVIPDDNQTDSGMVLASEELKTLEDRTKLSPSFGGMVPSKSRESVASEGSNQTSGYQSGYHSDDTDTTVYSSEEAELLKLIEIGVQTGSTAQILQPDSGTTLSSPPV

With `O=C1Nc2ccc(I)cc2C1=Cc1cc(Br)c(O)c(Br)c1` [GW5074, 5-Iodo-3-[(3,5-dibromo-4-hydroxyphenyl)methylene]-2-indolinone], the “neuroprotection against LK-induced apoptosis” value in test [1] (5 uM and 10 uM) is listed as “Neuroprotection by GW5074 is also observed”. For the same compound, the “protection against LK-induced apoptosis” value in test [1] (LK + 1 uM GW5074, 24 hours) is given as “prevents LK-induced apoptosis”. Also, the “concentration of maximal protection against LK-induced apoptosis” value in test [1] (viability 24 hours after switch to LK) was found to be 1 µM. Moreover, the “effect on activity of VEGFR2” value on VEGFR2 is reported as “no effect”. Also, the “dephosphorylation of Forkhead in LK” value in the test with Forkhead is recorded as “reduces the dephosphorylation”. Also, the “effect of dominant-negative Akt on survival promotion” value in test [2] is recorded as “no effect on the ability of GW5074 to maintain neuronal survival”. For the same compound, the “effect on activity of cdk2” value on cdk2 is recorded as “no effect”.
